Reference: BindingDB's records for doi:10.1016/j.ejmech.2020.113121 (Virginia Tech, 2021)

Assay: Inhibition of recombinant human Sphk2 expressed in yeast strain KYA1 assessed as increase in yeast growth measured after 24 hrs

EC50: 0.17 µM
SMILES: CCCCCCCCCn1ccc2cc(-c3noc([C@@H]4CCCN4C(=N)N)n3)ccc21
